Patent US20040242591A1, “Oxazolidinone derivatives as pontential antimicrobials” (priority 2001, published 2004)

Columns and labels:
[1] = tested on: S.aureus ATCC 25923; assay: MIC by agar incorporation method, S.aureus 25923; assay type: cell-based, Staphylococus aureus; design: unit not given here; details: Mueller Hinton agar, 10^4 CFU/spot, 18 hours
[2] = tested on: MRSA 15187; assay: MIC by agar incorporation method, MRSA 15187; assay type: cell-based, Methicillin Resistant Staphylococcus aureus; design: unit not given here; details: Mueller Hinton agar, 10^4 CFU/spot, 24 hours
Text: 2) MRSA 15187—Methicillin Resistant Staphylococcus aureus

[3] = tested on: MRSA 562; assay: MIC by agar incorporation method, MRSA 562; assay type: cell-based, Methicillin Resistant Staphylococcus aureus; design: unit not given here; details: Mueller Hinton agar, 10^4 CFU/spot, 24 hours
[4] = tested on: MRSA 33; assay: MIC by agar incorporation method, MRSA 33; assay type: cell-based, Methicillin Resistant Staphylococcus aureus; design: unit not given here; details: Mueller Hinton agar, 10^4 CFU/spot, 24 hours
[5] = tested on: Ent. faecalis ATCC 29212; assay: MIC by agar incorporation method, E.faecalis 29212; assay type: cell-based, Enterococcus faecalis; design: unit not given here; details: Mueller Hinton agar, 10^4 CFU/spot, 18 hours
Text: 3) Ent. faecalis ATCC 29212—Enterococcus faecalis ATCC 29212

[6] = tested on: VRE 6A; assay: MIC by agar incorporation method, VRE 6A; assay type: cell-based, Enterococcus faecium; design: unit not given here; details: Mueller Hinton agar, 10^4 CFU/spot, 18 hours
Text: 4) Ent. faecium […]—Enterococcus faecium 6A Van®, Cipro®

[7] = tested on: Strep.pyog. ATCC 19615; assay: MIC by agar incorporation method, S.pyogenes 19615; assay type: cell-based, Streptococcus pyogenes; design: unit not given here; details: Mueller Hinton agar, 10^4 CFU/spot, 18 hours
Text: 6) Strep.pyog. ATCC 19615—Streptococcus pyogenes

[8] = tested on: Strep. pne. ATCC 6303; assay: MIC by agar incorporation method, S. pneum 6303; assay type: cell-based, Streptococcus pneumoniae; details: Mueller Hinton agar, 10^4 CFU/spot, 18 hours
Text: 5) Strep. pne. ATCC 6303—Streptococcus pneumoniae ATCC 6303

[9] = tested on: S. pneum AB 34; assay: MIC by agar incorporation method, S. pneum AB 34; assay type: cell-based, Streptococcus pneumoniae; design: unit not given here; details: Mueller Hinton agar, 10^4 CFU/spot, 18 hours

| In Vitro (MIC) S.aureus 25923 [1] | In Vitro (MIC) MRSA 15187 [2] | In Vitro (MIC) MRSA 562 [3] | In Vitro (MIC) MRSA 33 [4] | In Vitro (MIC) E.faecalis 29212 [5] | In Vitro (MIC) VRE 6A [6] | In Vitro (MIC) S.pyogenes 19615 [7] | In Vitro (MIC) S. pneum 6303 [8] [µg/mL] | In Vitro (MIC) S. pneum AB 34 [9] | Compound |
| --- | --- | --- | --- | --- | --- | --- | --- | --- | --- |
| 2 | 0.5 | 1 | 2 | 0.25 | 0.25 | 4 | 8 | 8 | CC(=O)NC[C@H]1CN(c2ccc(N3CCCN(C(=O)c4ccc([N+](=O)[O-])o4)CC3)c(F)c2)C(=O)O1 [Compound No. 55, (S)-N-[[3-[3-Fluoro-4-[N-1-[4-{2-furoyl-(5-nitro)}]homopiperazinyl]phenyl]-2-oxo-5-oxazolidinyl]methyl]acetamide] |
| 4 | 4 | 2 | 4 | 4 | 4 | 4 | 8 | 16 | CC(=O)NC[C@H]1CN(c2ccc(N3CCN(Cc4ccc([N+](=O)[O-])o4)CC3C)c(F)c2)C(=O)O1 (stereo partly drawn) [Compound No. 58, (S)-N-[[3-[3-Fluoro-4-[N-1-[2-methyl-4-{2-furyl(5-nitro)methyl}]-piperazinyl]phenyl]-2-oxo-5-oxazolidinyl]methyl]acetamide] |
| 2 | 1 | 1 | 1 | 1 | 2 | 8 | 8 | 8 | CC(=O)NC[C@H]1CN(c2ccc(N3CCN(C(=O)c4ccc([N+](=O)[O-])o4)CC3C)c(F)c2)C(=O)O1 (stereo partly drawn) [Compound No. 59, (S)-N-[[3-[3-Fluoro-4-[N-1-[2-methyl-4-{2furoyl-(5-nitro)}]-piperazinyl]phenyl]-2-oxo-5-oxazolidinyl]methyl]acetamide] |
| 0.25 | <0.125 | <0.125 | <0.125 | 1 | 1 | 0.5 | 4 | 4 | CC(=O)NC[C@H]1CN(c2ccc(N3CCN(C(=O)c4ccc([N+](=O)[O-])s4)CC3C)c(F)c2)C(=O)O1 (stereo partly drawn) [Compound No. 60, (S)-N-[[3-[3-Fluoro-4-[N-1-[2-methyl-4-{2-thiophenoyl-(5-nitro)}]-piperazinyl]phenyl]-2-oxo-5-oxazolidinyl]methyl]acetamide] |
| 4 | 4 | 4 | 4 | 4 | 4 | 2 | 2 | 2 | CC(=O)NC[C@H]1CN(c2ccc(N3C(C)CN(C(=O)c4ccco4)CC3C)c(F)c2)C(=O)O1 (stereo partly drawn) [Compound No. 61, (S)-N-[[3-[3-Fluoro-4-[N-1-[2,6-dimethyl-4-{2-furoyl-}]-piperazinyl]phenyl]-2-oxo-5-oxazolidinyl]methyl]acetamide] |
| 16 | 8 | 8 | 8 | 8 | 8 | 16 | 16 | 16 | CC(=O)NC[C@H]1CN(c2ccc(N3C(C)CN(Cc4ccc([N+](=O)[O-])o4)CC3C)c(F)c2)C(=O)O1 (stereo partly drawn) [Compound No. 63, (S)-N-[[3-[3-Fluoro-4-[N-1-[2,6-dimethyl-4-{2-furyl-(5-nitro)methyl-}]-piperazinyl]phenyl]-2-oxo-5-oxazolidinyl]methyl]acetamide] |
